Here are results for four molecules from PMC6344987 (BMC Complementary and Alternative Medicine, 2019).

The nature of data set [1]: in vivo. The conditions noted are these: rat, po, 0.5 mg/kg. The procedure:
On the fifth day, blood samples were collected from the 18 h fasted rats at different time intervals namely; at zero time, 0.5, 1, 2, 3, 4, 6, 8, 12, 24, 48 and 72 h from all groups and drawn into EDTA micro tubes. The micro tubes were centrifuged at 7000 RPM for 10 min. Plasma was separated, transferred directly into labeled Eppendorf tubes and stored at − 20 °C until requested for HPLC analysis.
Reversed-phase high-performance liquid chromatography (HPLC) analysis was used to separate samples using Finnigan surveyor system (Thermo Electron Corporation, San Jose, California, USA) on a hypersil™ BDS C-18 Column (150 mm × 4.6 mm, 5 μm) (Thermo Electron Corporation, San Jose, California, USA) and quantified using ultraviolet detection at 310 nm (UV-VIS Plus Detector). The mobile phase was a mixture of 60% acetonitrile HPLC grade and 40% water containing 1 ml triethylamine/l and phosphoric acid (pH 3.0) with a flow rate of 1.0 ml/min (LC pump plus) using 20 μl injection volume (Autosampler Plus). Metronidazole benzoate was used as an internal standard. ChromQuest 4.2.34 chromatography data system was implemented for data acquisition and handling. […] Consequently, different concentrations of working solutions were prepared for plasma spiking by mixing 25 μl of working solutions in 975 μl of plasma (Fig. 1, Table 1). […] The supernatant was then analyzed using an in house validated HPLC method at the Faculty of Pharmacy and Medical Sciences, University of Petra, Amman, Jordan (MSc thesis, Farah Al-Mamoori, 2016, University of Petra).
The calculated pharmacokinetic parameters presented in the current study were maximum plasma concentration (Cmax), area under the curve (AUC), area under the first moment curve (AUMC), mean residence time (MRT), half-life (t0.5), clearance (CL), volume of distribution (Vz), time at which Cmax was observed (Tmax) and elimination rate constant (Kel).

The subject of data set [2] is Sprague Dawley rats. Description: In vivo pharmacodynamic study: prothrombin time (PT) and INR in rat plasma after five days of oral treatment. The conditions noted are these: oral daily for five days, WF 0.5 mg/kg, PPE 100 mg/kg, EA 40 mg/kg, GvL 250 mg/kg, QUE 12.75 mg/kg, mean ± SD (n = 8); for INR: calculated from PT; for PT: plasma on fifth day. The protocol: Adult Sprague Dawley laboratory rats were supplied by the Animal Facility of the University of […], Jordan). […] Rats were fasted overnight with free access to water. All experiments involving animals were conducted according to the institutional guidelines for the use of laboratory animals, which follows the guidelines of the Federation of European Laboratory Animal Science Associations (FELASA). The used animals were euthanized with cervical dislocation at the end of each experiment. The study protocol was revised and approved by the Committee of Scientific Research of the University of Petra (Approval number: 4-2016/2017, Date: 22/06/2017). The rats were weighed and randomized into ten groups (n = 8) and acclimatized for ten days before the experiment. Oral stainless steel gavage needle (Harvard Apparatus, Kent, UK) was used for oral administration of the treatments. Groups were treated daily for five days as following; group 1 received oral 0.5% CMC solution and served as a negative control. […] Group 3 received 100 mg/kg pomegranate peel extract suspension. […] Group 7 received 250 mg/kg guava leaves extract suspension. […] Plasma was separated, transferred directly into labeled Eppendorf tubes for PT and INR analysis. Reconstituted thromboplastin was added to 100 μl of each plasma sample in pre-warmed cuvette at 37 °C. […] INR was calculated from the detected PT according to the manufacturer's instructions.

The test system of data set [3] is CYP3A4. Description: P450-Glo CYP3A4 (Luciferin-IPA) activity in primary isolated rat hepatocytes. The conditions noted are these: n = 6; for CYP3A4 activity relative to untreated isolated hepatocytes, in combination with warfarin: combined with warfarin 3 μg/ml, pomegranate peel extract 120, ellagic acid 48, guava leaves extract 294, quercetin 15 μg/ml; for CYP3A4 activity relative to untreated isolated hepatocytes: substance alone, ketoconazole 1, warfarin 3, pomegranate peel extract 120, ellagic acid 48, guava leaves extract 294, quercetin 15 μg/ml. In kind it is in vitro ADME. The procedure:
(§1) The liver of anaesthetized rat with inhaled isoflurane were perfused with collagenase enzyme as described by. Liver cells were dispersed gently in a sterile petri dish, and prepared for hepatocyte culture as described elsewhere. Cell were plated at a final concentration of 50,000 cell/100 μl and seeded in 96 well plates (100 μl). Cells were left to recover and grow overnight prior to the day of experiment.
Doses of chemicals selected for in vitro testing on primary cultured hepatocyte mitochondrial activity were estimated after literature review and preliminary work in order to obtain the IC50 values of tested compounds (data not shown). […] Directly after the addition of treatments, 25 μl of the lumenogenic substrate (Luciferin-H, Luciferin-ME or Luciferin-IPA) was added to each well. The plates were incubated at 37 °C for appropriate time according to manufacture protocol (Promega, USA). Later, 25 μl from culture media from each well was transferred into 96-well opaque white luminometer plate and equal amount of Luciferin detection reagent was added to each well to initiate the luminescent reaction. The reaction was allowed for 20 min at room temperature away from light. Finally, luminescence was read using GloMax®-Multi Detection System (Promega, USA).

Data set [4] relates to CYP2C8. Description: P450-Glo CYP2C8 (Luciferin-ME) activity in primary isolated rat hepatocytes. In kind it is in vitro ADME. The conditions noted are these: n = 6; for CYP2C8 activity relative to untreated isolated hepatocytes, in combination with warfarin: combined with warfarin 3 μg/ml, pomegranate peel extract 120, ellagic acid 48, guava leaves extract 294, quercetin 15 μg/ml. The procedure:
as §1
(§2) Directly after the addition of treatments, 25 μl of the lumenogenic substrate (Luciferin-H, Luciferin-ME or Luciferin-IPA) was added to each well. The plates were incubated at 37 °C for appropriate time according to manufacture protocol (Promega, USA). Later, 25 μl from culture media from each well was transferred into 96-well opaque white luminometer plate and equal amount of Luciferin detection reagent was added to each well to initiate the luminescent reaction. The reaction was allowed for 20 min at room temperature away from light. Finally, luminescence was read using GloMax®-Multi Detection System (Promega, USA).

Data set [5] has as its system CYP2C9. Description: P450-Glo CYP2C9 (Luciferin-H) activity in primary isolated rat hepatocytes. In kind it is in vitro ADME. The conditions noted are these: n = 6; for CYP2C9 activity relative to untreated isolated hepatocytes, in combination with warfarin: combined with warfarin 3 μg/ml, pomegranate peel extract 120, ellagic acid 48, guava leaves extract 294, quercetin 15 μg/ml; for CYP2C9 activity relative to untreated isolated hepatocytes: substance alone, sulfamethoxazole 130, warfarin 3, pomegranate peel extract 120, ellagic acid 48, guava leaves extract 294, quercetin 15 μg/ml. The procedure:
as §1, §2

As a reminder, the AUC is concentration integrated over time. The low end stands for less exposure, the high end for more exposure. Broadly, the Cmax is the peak of the concentration-time curve. For orientation: MRT means the average time that molecules of a dose stay in the body. Usually Tmax stands for the time from dosing to the highest level. A word on the Vd/F: it is the volume of distribution divided by bioavailability. Broadly, the CL/F is the apparent clearance, not corrected for the fraction that reaches the circulation. Take `CC(=O)CC(c1ccccc1)c1c(O)c2ccccc2oc1=O` (centres unmarked) [WF, Warfarin]: in data set [1] (Sprague-Dawley), the exposure (AUC) was 107 µg·h/mL, the peak level (Cmax) was 3670 ± 663 ng/mL, the MRT was found to be 25 ± 5 h and the time of peak concentration (Tmax) was 6 ± 8 h. The same molecule came in with a Vd/F in data set [1] (Sprague-Dawley) of 0.035 ± 0.015 L. In data set [1], the CL/F turned out to be 1.45 ± 0.5 mL/h. For the same molecule, in data set [2], the INR is given as 19 ± 1 and the PT is listed as 191 ± 12 s.
Turning to `O=c1c(O)c(-c2ccc(O)c(O)c2)oc2cc(O)cc(O)c12` [QUE, quercetin hydrate], in data set [3], the “CYP3A4 activity relative to untreated isolated hepatocytes, in combination with warfarin” value was “inhibited” and the “CYP3A4 activity relative to untreated isolated hepatocytes” value is recorded as “inhibited”. In data set [2], the INR is on record as 1.39 ± 0.09 and the PT is recorded as 22.5 ± 1.20 s. In data set [4], the “CYP2C8 activity relative to untreated isolated hepatocytes, in combination with warfarin” value is recorded as “inhibited”. For the same molecule, the “CYP2C8 activity relative to untreated isolated hepatocytes” value in data set [4] (substance alone, trimethoprim 30, warfarin 3, pomegranate peel extract 120, ellagic acid 48, guava leaves extract 294, quercetin 15 μg/ml) was “inhibited”. In data set [5], the “CYP2C9 activity relative to untreated isolated hepatocytes, in combination with warfarin” value is reported as “inhibited” and the “CYP2C9 activity relative to untreated isolated hepatocytes” value was “inhibited”.
Regarding `O=c1oc2c(O)c(O)cc3c(=O)oc4c(O)c(O)cc1c4c23` [EA, ellagic acid], in data set [3], the “CYP3A4 activity relative to untreated isolated hepatocytes, in combination with warfarin” value is reported as “significantly inhibited”. In addition, in data set [2], the INR was 1.43 ± 0.10 and the PT is listed as 23 ± 1.31 s. In addition, the “CYP2C8 activity relative to untreated isolated hepatocytes, in combination with warfarin” value in data set [4] was “significantly inhibited”. In data set [5], the “CYP2C9 activity relative to untreated isolated hepatocytes, in combination with warfarin” value was “significantly inhibited” and the “CYP2C9 activity relative to untreated isolated hepatocytes” value is on record as “significant inhibition”.
`CC(=O)N1CCN(c2ccc(OCC3COC(Cn4ccnc4)(c4ccc(Cl)cc4Cl)O3)cc2)CC1` (centres unmarked) [ketoconazole, reference compound]: in data set [3], the “CYP3A4 activity relative to untreated isolated hepatocytes” value is on record as “significantly reduced”.
